In ChEMBL document CHEMBL3872242, “Anti-inflammatory tetraquinane diterpenoids from a Crinipellis species” (Bioorg Med Chem, 2017) one finds IC50, Activity and inhibition data, which are given here for 3 compounds.

Molecules are shown by their SMILES. Calls of active or inactive are those of the source. The calls are words filed in the database; no cut-off is given here.

Data set [1] can be described thus: Inhibition of NF-kappaB (unknown origin) expressed in LPS/INF-gamma-stimulated human MONO-MAC-6 cells measured after 4 hrs by luciferase reporter gene assay. The following applies: MONO-MAC-6, 4 h. Type of data set: cell-based.
Data set [2] has as its system MONO-MAC-6. The data set is described as follows: Inhibition of human THP1 cells derived IL-8 promoter dependent transcription activity expressed in LPS/INF-gamma stimulated human MONO-MAC-6 cells measured after 4 hrs by luciferase reporter gene assay. Type of data set: functional, cell-based. The following applies: MONO-MAC-6, 4 h. A general note: Reporter assays use an easily measured gene product as a stand-in for the process of interest.

A short description of data set [3]: Inhibition of IRF (unknown origin) expressed in LPS/INF-gamma-stimulated human MONO-MAC-6 cells assessed as reduction in ISRE dependent transcription activity measured after 4 hrs by luciferase reporter gene assay. The following applies: MONO-MAC-6, 4 h. Format: cell-based.
The nature of data set [4]: Cytotoxicity against human MONO-MAC-6 cells up to 50 uM measured after 24 hrs by XTT assay. Type of data set: toxicity, cell-based. The following applies: mono-mac-6, 24 h. For orientation: Tetrazolium dyes change colour on reduction, which living cells bring about.
Data set [5] in a line: Effect on constitutive activity of EF-1alpha expressed in human MONO-MAC-6 cells up to 50 uM measured after 4 hrs by luciferase reporter gene assay. Type of data set: ADME, cell-based. The conditions noted are these: mono-mac-6, 4 h.
In data set [6] the test system is MONO-MAC-6. The data set is described as follows: Inhibition of CXCL11 mRNA expression in LPS/INF-gamma stimulated human MONO-MAC-6 cells at 30 uM preincubated for 1 hr followed by LPS/INF-gamma stimulation measured after 16 hrs. Type of data set: functional, cell-based.
For data set [7], the system named is MONO-MAC-6. The data set is described as follows: Inhibition of IL-6 mRNA expression in LPS/INF-gamma stimulated human MONO-MAC-6 cells at 30 uM preincubated for 1 hr followed by LPS/INF-gamma stimulation measured after 16 hrs. Format: functional, cell-based.
Data set [8] can be described thus: Down regulation of TNF-alpha mRNA expression in LPS/INF-gamma stimulated human MONO-MAC-6 cells at 30 uM preincubated for 1 hr followed by LPS/INF-gamma stimulation measured after 4 hrs by quantitative RT-PCR analysis. Type of data set: functional, cell-based.
A short description of data set [9]: Down regulation of […] mRNA expression in LPS/INF-gamma stimulated human MONO-MAC-6 cells at 30 uM preincubated for 1 hr followed by LPS/INF-gamma stimulation measured after 4 hrs by quantitative RT-PCR analysis. Format: functional, cell-based.
A short description of data set [10]: Down regulation of IL-6 mRNA expression in LPS/INF-gamma stimulated human MONO-MAC-6 cells at 30 uM preincubated for 1 hr followed by LPS/INF-gamma stimulation measured after 4 hrs by quantitative RT-PCR analysis. Type of data set: functional, cell-based.
Data set [11] concerns MONO-MAC-6. The data set is described as follows: Inhibition of CCL1 mRNA expression in LPS/INF-gamma stimulated human MONO-MAC-6 cells at 30 uM preincubated for 1 hr followed by LPS/INF-gamma stimulation measured after 16 hrs. Type of data set: functional, cell-based.
Data set [12] has as its system MONO-MAC-6. The data set is described as follows: Inhibition of CXCL10 mRNA expression in LPS/INF-gamma stimulated human MONO-MAC-6 cells at 30 uM preincubated for 1 hr followed by LPS/INF-gamma stimulation measured after 16 hrs. Format: functional, cell-based.
Data set [13] deals with MONO-MAC-6. The data set is described as follows: Inhibition of CCL3 mRNA expression in LPS/INF-gamma stimulated human MONO-MAC-6 cells at 30 uM preincubated for 1 hr followed by LPS/INF-gamma stimulation measured after 16 hrs. Type of data set: functional, cell-based.
Data set [14] is described as follows: Down regulation of COX-2 mRNA expression in LPS/INF-gamma stimulated human MONO-MAC-6 cells at 30 uM preincubated for 1 hr followed by LPS/INF-gamma stimulation measured after 4 hrs by quantitative RT-PCR analysis. Type of data set: functional, cell-based.
In data set [15] the test system is MONO-MAC-6. The data set is described as follows: Inhibition of CXCL1 mRNA expression in LPS/INF-gamma stimulated human MONO-MAC-6 cells at 30 uM preincubated for 1 hr followed by LPS/INF-gamma stimulation measured after 16 hrs. Format: functional, cell-based.
Data set [16] deals with MONO-MAC-6. The data set is described as follows: Inhibition of TNF-alpha mRNA expression in LPS/INF-gamma stimulated human MONO-MAC-6 cells at 30 uM preincubated for 1 hr followed by LPS/INF-gamma stimulation measured after 16 hrs. Type of data set: functional, cell-based.
Data set [17] has as its system MONO-MAC-6. The data set is described as follows: Inhibition of LPS/INF-gamma induced CXCL10 promoter dependent transcription activity in human MONO-MAC-6 cells measured after 4 hrs by luciferase reporter gene assay. Format: functional.
Data set [18] is described as follows: Down regulation of IL-8 mRNA expression in LPS/INF-gamma stimulated human MONO-MAC-6 cells at 30 uM preincubated for 1 hr followed by LPS/INF-gamma stimulation measured after 4 hrs by quantitative RT-PCR analysis. Format: functional, cell-based.
The nature of data set [19]: Effect on GAPDH mRNA expression in human MONO-MAC-6 cells at 30 to 60 uM preincubated for 1 hr followed by LPS/INF-gamma stimulation measured after 4 hrs by quantitative RT-PCR analysis. Format: ADME, cell-based. The conditions noted are these: mono-mac-6, 4 h.
Data set [20] relates to MONO-MAC-6. The data set is described as follows: Inhibition of IL-23 mRNA expression in LPS/INF-gamma stimulated human MONO-MAC-6 cells at 30 uM preincubated for 1 hr followed by LPS/INF-gamma stimulation measured after 16 hrs. Format: functional, cell-based.
The test system of data set [21] is MONO-MAC-6. The data set is described as follows: Inhibition of IL-8 mRNA expression in LPS/INF-gamma stimulated human MONO-MAC-6 cells at 30 uM preincubated for 1 hr followed by LPS/INF-gamma stimulation measured after 16 hrs. Format: functional, cell-based.
Data set [22] can be described thus: Down regulation of CCL2 mRNA expression in LPS/INF-gamma stimulated human MONO-MAC-6 cells at 30 uM preincubated for 1 hr followed by LPS/INF-gamma stimulation measured after 4 hrs by quantitative RT-PCR analysis. Type of data set: functional, cell-based.
For data set [23], the system named is MONO-MAC-6. The data set is described as follows: Inhibition of CXCL10 mRNA expression in LPS/INF-gamma stimulated human MONO-MAC-6 cells at 3.8 uM preincubated for 1 hr followed by LPS/INF-gamma stimulation measured after 16 hrs. Format: functional, cell-based.
Data set [24] deals with MONO-MAC-6. The data set is described as follows: Inhibition of CXCL1 mRNA expression in LPS/INF-gamma stimulated human MONO-MAC-6 cells at 3.8 uM preincubated for 1 hr followed by LPS/INF-gamma stimulation measured after 16 hrs. Format: functional, cell-based.
Data set [25] has as its system MONO-MAC-6. The data set is described as follows: Inhibition of IL-23 mRNA expression in LPS/INF-gamma stimulated human MONO-MAC-6 cells at 3.8 uM preincubated for 1 hr followed by LPS/INF-gamma stimulation measured after 16 hrs. Type of data set: functional, cell-based.
Data set [26] in a line: Down regulation of CCL2 mRNA expression in LPS/INF-gamma stimulated human MONO-MAC-6 cells at 3.8 uM preincubated for 1 hr followed by LPS/INF-gamma stimulation measured after 4 hrs by quantitative RT-PCR analysis. Format: functional, cell-based.
Data set [27] is described as follows: Down regulation of IL-8 mRNA expression in LPS/INF-gamma stimulated human MONO-MAC-6 cells at 3.8 uM preincubated for 1 hr followed by LPS/INF-gamma stimulation measured after 4 hrs by quantitative RT-PCR analysis. Type of data set: functional, cell-based.
Data set [28] can be described thus: Down regulation of IL-6 mRNA expression in LPS/INF-gamma stimulated human MONO-MAC-6 cells at 3.8 uM preincubated for 1 hr followed by LPS/INF-gamma stimulation measured after 4 hrs by quantitative RT-PCR analysis. Type of data set: functional, cell-based.
Data set [29] deals with MONO-MAC-6. The data set is described as follows: Inhibition of CXCL11 mRNA expression in LPS/INF-gamma stimulated human MONO-MAC-6 cells at 3.8 uM preincubated for 1 hr followed by LPS/INF-gamma stimulation measured after 16 hrs. Type of data set: functional, cell-based.
Data set [30] relates to MONO-MAC-6. The data set is described as follows: Inhibition of CCL1 mRNA expression in LPS/INF-gamma stimulated human MONO-MAC-6 cells at 3.8 uM preincubated for 1 hr followed by LPS/INF-gamma stimulation measured after 16 hrs. Format: functional, cell-based.
A short description of data set [31]: Down regulation of […] mRNA expression in LPS/INF-gamma stimulated human MONO-MAC-6 cells at 3.8 uM preincubated for 1 hr followed by LPS/INF-gamma stimulation measured after 4 hrs by quantitative RT-PCR analysis. Type of data set: functional, cell-based.
The test system of data set [32] is MONO-MAC-6. The data set is described as follows: Inhibition of CCL3 mRNA expression in LPS/INF-gamma stimulated human MONO-MAC-6 cells at 3.8 uM preincubated for 1 hr followed by LPS/INF-gamma stimulation measured after 16 hrs. Format: functional, cell-based.
Data set [33] can be described thus: Down regulation of COX-2 mRNA expression in LPS/INF-gamma stimulated human MONO-MAC-6 cells at 3.8 uM preincubated for 1 hr followed by LPS/INF-gamma stimulation measured after 4 hrs by quantitative RT-PCR analysis. Format: functional, cell-based.
Data set [34] in a line: Effect on GAPDH mRNA expression in human MONO-MAC-6 cells at 2.52 to 3.8 uM preincubated for 1 hr followed by LPS/INF-gamma stimulation measured after 4 hrs by quantitative RT-PCR analysis. Type of data set: ADME, cell-based. The following applies: mono-mac-6, 4 h.
For data set [35], the system named is MONO-MAC-6. The data set is described as follows: Inhibition of IL-6 mRNA expression in LPS/INF-gamma stimulated human MONO-MAC-6 cells at 3.8 uM preincubated for 1 hr followed by LPS/INF-gamma stimulation measured after 16 hrs. Format: functional, cell-based.
The nature of data set [36]: Down regulation of TNF-alpha mRNA expression in LPS/INF-gamma stimulated human MONO-MAC-6 cells at 3.8 uM preincubated for 1 hr followed by LPS/INF-gamma stimulation measured after 4 hrs by quantitative RT-PCR analysis. Format: functional, cell-based.
Data set [37] relates to MONO-MAC-6. The data set is described as follows: Inhibition of TNF-alpha mRNA expression in LPS/INF-gamma stimulated human MONO-MAC-6 cells at 3.8 uM preincubated for 1 hr followed by LPS/INF-gamma stimulation measured after 16 hrs. Format: functional, cell-based.
Data set [38] relates to MONO-MAC-6. The data set is described as follows: Inhibition of IL-8 mRNA expression in LPS/INF-gamma stimulated human MONO-MAC-6 cells at 3.8 uM preincubated for 1 hr followed by LPS/INF-gamma stimulation measured after 16 hrs. Format: functional, cell-based.

For the compound `C=C[C@H]1CC[C@]23C[C@@H]4[C@H](C)[C@@H](O)[C@H]5O[C@@]45[C@@]2(C)CC(=O)[C@]13C`, the half-maximal inhibitory concentration (IC50) (in data set [1]; in the data set with MONO-MAC-6 [2]; in [3]) was more than 50 µM throughout. Further, the Activity result in [4] and in data set [5] was “Non-Toxic” each time.

Consider `CC(C)[C@H]1CC[C@]23C[C@@H]4[C@H](C)C(=O)[C@H]5O[C@]54[C@@]2(C)[C@@H](O)C(=O)[C@]13C`, for which the IC50 lay within 20 to 25 µM in [1], 7 to 7.5 µM in the data set with MONO-MAC-6 [2] and 40 to 45 µM in [3]. Also, the inhibition result in the data set with MONO-MAC-6 [6], with MONO-MAC-6 [7], in the data set with MONO-MAC-6 [11], in the data set with MONO-MAC-6 [12], in the data set with MONO-MAC-6 [13] and in the data set with MONO-MAC-6 [15] was “Active” throughout. Further, the inhibition entry in the data set on MONO-MAC-6 [16], with MONO-MAC-6 [20] and in the data set on MONO-MAC-6 [21] was “Active” each time. Also, the outcome in [8], in data set [9], in data set [10], in data set [14], in data set [18] and in data set [22] was Active. Also, the Activity entry in data set [4], in data set [5] and in data set [19] was “Non-Toxic” in each case. Moreover, the inhibition entry in the data set on MONO-MAC-6 [17] is “Dose-dependent effect”.

For the compound `CC(C)[C@H]1CC[C@]23C[C@@H]4[C@H](C)C(=O)[C@H]5O[C@]54[C@@]2(C)CC(=O)[C@]13C`, the half-maximal inhibitory concentration (IC50) in [1] was 0.32 to 0.4 µM; in the data set with MONO-MAC-6 [2], 0.9 to 1.2 µM; in [3], 0.8 to 1 µM. In addition, the inhibition result in the data set with MONO-MAC-6 [23], with MONO-MAC-6 [24], in the data set on MONO-MAC-6 [25], with MONO-MAC-6 [29], in the data set on MONO-MAC-6 [30] and in the data set on MONO-MAC-6 [32] was “Active” each time. The inhibition result in the data set on MONO-MAC-6 [35], in the data set on MONO-MAC-6 [37] and with MONO-MAC-6 [38] was “Active” each time. Moreover, the outcome in data set [26], in data set [27], in [28], in data set [31], in [33] and in data set [36] was Active. In addition, the Activity entry in [4], in data set [5] and in data set [34] was “Non-Toxic” in each case. In addition, the inhibition result with MONO-MAC-6 [17] is “Dose-dependent effect”.

Broadly, the IC50 is the midpoint of a concentration-inhibition curve.
